Measurements taken from patent US20260262643A1, “HERBICIDAL BENZOXAZINES” (FMC CORPORATION, priority 2022, published 2026).

How the values were obtained:
barnyardgrass [1] = assay: Test C postemergence; assay type: in vivo, Echinochloa crusgalli; settings: 10 days, 0 to 100 scale (0 no effect, 100 complete control)
Procedure, shortened: (§1)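 Seeds sown in loam soil–sand blend received a directed preemergence soil spray of test chemical in non-phytotoxic solvent with surfactant; postemergence plants (2–10 cm, one- to two-leaf stage) were sprayed with the same formulation. Greenhouse-held 10 days, then visually rated for injury versus untreated controls, 0 (no effect) to 100 (complete control).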

kochia [2] = assay: Test C postemergence; assay type: in vivo, Bassia scoparia; settings: 10 days, 0 to 100 scale (0 no effect, 100 complete control)
Procedure, shortened: as §1

sedge, umbrella = assay: Test D flooded paddy test; assay type: in vivo, Cyperus difformis; settings: 250 g ai/ha, applied to paddy water, visual rating after 13 to 14 days, scale 0 to 100 (0 no effect, 100 complete control)
Procedure, shortened: (§2)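 2-leaf plants; flood 3 cm above soil; compound dosed into paddy water; greenhouse 13–14 d; visual rating vs controls, 0–100 (100 = complete control); dash = not tested.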

pigweed, palmer [3] = assay: Test C postemergence; assay type: in vivo, Amaranthus palmeri; settings: 10 days, 0 to 100 scale (0 no effect, 100 complete control)
Procedure, shortened: as §1

ryegrass, Italian [4] = assay: Test C postemergence; assay type: in vivo, Lolium multiflorum; settings: 10 days, 0 to 100 scale (0 no effect, 100 complete control)
Procedure, shortened: as §1

ragweed = assay: Test C postemergence; assay type: in vivo, Ambrosia artemisiifolia; settings: 10 days, 0 to 100 scale (0 no effect, 100 complete control)
Procedure, shortened: as §1

pigweed, palmer [5] = assay: Test C preemergence; assay type: in vivo, Amaranthus palmeri; settings: preemergence, 0 to 100 scale (0 no effect, 100 complete control)
Procedure, shortened: as §1

horseweed = assay: Test C postemergence; assay type: in vivo, Erigeron canadensis; settings: 10 days, 0 to 100 scale (0 no effect, 100 complete control)
Procedure, shortened: as §1

green foxtail [6] = assay: Test C postemergence; assay type: in vivo, Setaria viridis; settings: 10 days, 0 to 100 scale (0 no effect, 100 complete control)
Procedure, shortened: as §1

green foxtail [7] = assay: Test C preemergence; assay type: in vivo, Setaria viridis; settings: preemergence, 0 to 100 scale (0 no effect, 100 complete control)
Procedure, shortened: as §1

ryegrass, Italian [8] = assay: Test C preemergence; assay type: in vivo, Lolium multiflorum; settings: preemergence, 0 to 100 scale (0 no effect, 100 complete control)
Procedure, shortened: as §1

wheat [9] = assay: Test C preemergence; assay type: in vivo, Triticum aestivum; settings: preemergence, 0 to 100 scale (0 no effect, 100 complete control)
Procedure, shortened: as §1

barnyardgrass [10] = assay: Test C preemergence; assay type: in vivo, Echinochloa crusgalli; settings: preemergence, 0 to 100 scale (0 no effect, 100 complete control)
Procedure, shortened: as §1

blackgrass [11] = assay: Test C postemergence; assay type: in vivo, Alopecurus myosuroides; settings: 10 days, 0 to 100 scale (0 no effect, 100 complete control)
Procedure, shortened: as §1

corn [12] = assay: Test C postemergence; assay type: in vivo, Zea mays; settings: 10 days, 0 to 100 scale (0 no effect, 100 complete control)
Procedure, shortened: as §1

rice = assay: Test D flooded paddy test; assay type: in vivo, Oryza sativa; settings: 250 g ai/ha, applied to paddy water, visual rating after 13 to 14 days, scale 0 to 100 (0 no effect, 100 complete control)
Procedure, shortened: as §2

ducksalad = assay: Test D flooded paddy test; assay type: in vivo, Heteranthera limosa; settings: 250 g ai/ha, applied to paddy water, visual rating after 13 to 14 days, scale 0 to 100 (0 no effect, 100 complete control)
Procedure, shortened: as §2

corn [13] = assay: Test C preemergence; assay type: in vivo, Zea mays; settings: 500 g ai/ha, preemergence; 0 to 100 scale (0 no effect, 100 complete control)
Procedure, shortened: as §1

soybean [14] = assay: Test C postemergence; assay type: in vivo, Glycine max; settings: 10 days, 0 to 100 scale (0 no effect, 100 complete control)
Procedure, shortened: as §1

wheat [15] = assay: Test C postemergence; assay type: in vivo, Triticum aestivum; settings: 10 days, 0 to 100 scale (0 no effect, 100 complete control)
Procedure, shortened: as §1

soybean [16] = assay: Test C preemergence; assay type: in vivo, Glycine max; settings: preemergence, 0 to 100 scale (0 no effect, 100 complete control)
Procedure, shortened: as §1

galium = assay: Test C postemergence; assay type: in vivo, Galium aparine; settings: 500 g ai/ha, postemergence, 10 days, 0 to 100 scale (0 no effect, 100 complete control)
Procedure, shortened: as §1

oat, wild [17] = assay: Test C preemergence; assay type: in vivo, Avena fatua; settings: preemergence, 0 to 100 scale (0 no effect, 100 complete control)
Procedure, shortened: as §1

blackgrass [18] = assay: Test C preemergence; assay type: in vivo, Alopecurus myosuroides; settings: preemergence, 0 to 100 scale (0 no effect, 100 complete control)
Procedure, shortened: as §1

kochia [19] = assay: Test C preemergence; assay type: in vivo, Bassia scoparia; settings: preemergence, 0 to 100 scale (0 no effect, 100 complete control)
Procedure, shortened: as §1

oat, wild [20] = assay: Test C postemergence; assay type: in vivo, Avena fatua; settings: 10 days, 0 to 100 scale (0 no effect, 100 complete control)
Procedure, shortened: as §1

barnyardgrass [21] = assay: Test D flooded paddy test; assay type: in vivo, Echinochloa crus-galli; settings: 250 g ai/ha, applied to paddy water, visual rating after 13 to 14 days, scale 0 to 100 (0 no effect, 100 complete control)
Procedure, shortened: as §2

Cc1cccc2c1OC(C(F)(F)F)CN2C(=O)c1cccc(-n2cnc(C(C)C)n2)c1 (single isomer, unassigned) [Compound 302]
Plant response rating, Barnyardgrass (barnyardgrass [1]; 500 g ai/ha, postemergence): 10
Plant response rating, Barnyardgrass (barnyardgrass [1]; Postemergence, 125 g ai/ha): 10
Plant response rating, Kochia (kochia [2]; 500 g ai/ha, postemergence): 70
Plant response rating, Kochia (kochia [2]; Postemergence, 125 g ai/ha): 20
Plant response rating, Sedge, Umbrella (Flood) (sedge, umbrella): 0
Plant response rating, Pigweed, Palmer (pigweed, palmer [3]; 500 g ai/ha, postemergence): 20
Plant response rating, Pigweed, Palmer (pigweed, palmer [3]; Postemergence, 125 g ai/ha): 10
Plant response rating, Ryegrass, Italian (ryegrass, Italian [4]; 500 g ai/ha, postemergence): 50
Plant response rating, Ryegrass, Italian (ryegrass, Italian [4]; Postemergence, 125 g ai/ha): 0
Plant response rating, Ragweed (ragweed; 500 g ai/ha, postemergence): 20
Plant response rating, Ragweed (ragweed; Postemergence, 125 g ai/ha): 20
Pigweed, Palmer plant response rating (pigweed, palmer [5]; 500 g ai/ha): 80
Pigweed, Palmer plant response rating (pigweed, palmer [5]; Test C, 125 g ai/ha): 70
Plant response rating, Horseweed (horseweed; 500 g ai/ha, postemergence): 50
Plant response rating, Horseweed (horseweed; Postemergence, 125 g ai/ha): 60
Plant response rating, Foxtail, Green (green foxtail [6]; 500 g ai/ha, postemergence): 10
Plant response rating, Foxtail, Green (green foxtail [6]; Postemergence, 125 g ai/ha): 0
Foxtail, Green plant response rating (green foxtail [7]; 500 g ai/ha): 80
Foxtail, Green plant response rating (green foxtail [7]; Test C, 125 g ai/ha): 20
Ryegrass, Italian plant response rating (ryegrass, Italian [8]; 500 g ai/ha): 100
Ryegrass, Italian plant response rating (ryegrass, Italian [8]; Test C, 125 g ai/ha): 80
Wheat plant response rating (wheat [9]; 500 g ai/ha): 40
Wheat plant response rating (wheat [9]; Test C, 125 g ai/ha): 20
Barnyardgrass plant response rating (barnyardgrass [10]; 500 g ai/ha): 50
Barnyardgrass plant response rating (barnyardgrass [10]; Test C, 125 g ai/ha): 0
Plant response rating, Blackgrass (blackgrass [11]; 500 g ai/ha, postemergence): 30
Plant response rating, Blackgrass (blackgrass [11]; Postemergence, 125 g ai/ha): 0
Plant response rating, Corn (corn [12]; 500 g ai/ha, postemergence): 10
Plant response rating, Corn (corn [12]; Postemergence, 125 g ai/ha): 10
Plant response rating, Rice (Flood) (rice): 0
Plant response rating, Ducksalad (Flood) (ducksalad): 0
Corn plant response rating (corn [13]): 0
Plant response rating, Soybean (soybean [14]; 500 g ai/ha, postemergence): 90
Plant response rating, Soybean (soybean [14]; Postemergence, 125 g ai/ha): 80
Plant response rating, Wheat (wheat [15]; 500 g ai/ha, postemergence): 10
Plant response rating, Wheat (wheat [15]; Postemergence, 125 g ai/ha): 10
Soybean plant response rating (soybean [16]; 500 g ai/ha): 20
Soybean plant response rating (soybean [16]; Test C, 125 g ai/ha): 10
Plant response rating, Galium (galium): 90
Oat, Wild plant response rating (oat, wild [17]; 500 g ai/ha): 80
Oat, Wild plant response rating (oat, wild [17]; Test C, 125 g ai/ha): 0
Blackgrass plant response rating (blackgrass [18]; 500 g ai/ha): 60
Blackgrass plant response rating (blackgrass [18]; Test C, 125 g ai/ha): 30
Kochia plant response rating (kochia [19]; 500 g ai/ha): 80
Kochia plant response rating (kochia [19]; Test C, 125 g ai/ha): 0
Plant response rating, Oat, Wild (oat, wild [20]; 500 g ai/ha, postemergence): 10
Plant response rating, Oat, Wild (oat, wild [20]; Postemergence, 125 g ai/ha): 0
Plant response rating, Barnyardgrass (Flood) (barnyardgrass [21]): 0
